How the values were obtained:
Format in all cases: in vivo
[1] = tested on: two spotted mite (Tetranychus urticae Koch); test: Use Example C: activity in the prophylactic treatment of feed against the two spotted mite; settings: foliar, 0.1 % aqueous preparation, field bean leaf discs, adults and eggs counted after 3 days at 25 C, larvae after a further 7 days, Abbott's method
Method: Activity in the prophylactic treatment of feed against the two spotted mite (Tetranychus urticae Koch)
From the primary leaf of field beans (Phaseolus vulgaris nanus Aschers.) 14 mm diameter discs were cut. Some of these were treated with a 0.1 % aqueous preparations of compounds of the invention and these along side untreated discs were placed on filter papers with the underside of the leaves turned upwards. After drying the test pieces, they were each infested with six adult female Tetranychus urticae and maintained for 3 days at 25 C and 16 hours light per day. The experiment was replicated 4 times. Dead and alive adults were then counted and removed. Similarly the number of eggs laid were counted. After a further 7 days, the number of living larvae were counted, the activity calculated using Abbott's method in comparison with the untreated controls.

Aphis fabae = test: Activity in prophylactic treatment of leaf discs against Aphis fabae; settings: 48 h; for mortality at 0.1 %: Aphis fabae, foliar, 0.1% aqueous preparation, field bean leaf discs infested with wingless stages, 2 days at 25 C, percentage mortality, Abbott's method
Method: From the primary leaf of field beans (Phaseolus vulgaris nanus Aschers.), 24 mm diameter discs were cut. Some of these were treated with a 0.1% aqueous preparations of compounds of the invention and these along side untreated discs were placed on filter papers with the underside of the leaves turned upwards. After drying the test pieces, they were each infested with wingless stages of Aphis fabae (approx 100 per leaf piece). The experiment was replicated 3 times. The leaves were kept on wet filter papers for 2 days at 25 C and 16 hours light per day. The percentage mortality was then estimated and the activity calculated using Abbott's method in comparison with the untreated controls.

[2] = tested on: cotton bollworm (Heliothis viriscens); test: whole plant or invertebrate; settings: 48 h, read-out: activity
Method: Activity against larvae (L1) of the cotton bollworm (Heliothis viriscens)
Compounds of the invention were made up as aqueous preparations at a concentration of 0.1 %. Into these, feed material was dipped for 2 seconds. After drying the feed material was put into into polystyrene petri dishes. After an hour, 10 L1 of the cotton bollworm (Heliothis viriscens) were counted into the dishes. The closed dishes were left for up to 7 days at 25 °C under extended daylight conditions. The % mortality of the larvae after two days indicated the level of activity.

[3] = tested on: corn rootworm (Diabrotica undecimpunctata); test: Use Example D: activity against eggs/larvae of the corn rootworm; settings: 168 h; for mortality at 0.1 %: Diabrotica undecimpunctata, aqueous emulsion 0.1%, 0.2 ml pipetted into soil, 7 days at 25 C, death of eggs or newly hatched larvae; for activity: corn rootworm, in vivo
Method: Activity against eggs/larvae of the corn rootworm (Diabrotica undecimpunctata)
The compounds of the invention were made up as aqueous emulsions at a concentration of 0.1%. Into the soil in polystyrene petri dishes, containing maize seedlings (1 seedling/dish) and ca. 50 eggs of the corn rootworm (Diabrotica undecimpunctata) were pipetted 0.2 ml of these preparations. The closed dishes were left at 25 C under extended daylight conditions for 7 days. The criterion for judging the activity was the death of eggs or newly hatched larvae at the end of the test.

[4] = tested on: brown rice-hoppers (Niliparvata lugens Stal); test: Use Example B: activity in prophylactic treatment of leaves against brown rice-hoppers; settings: 48 h; for mortality at 0.1 %: read-out: activity
Excerpt: Activity in prophylactic treatment of leaves against brown rice-hoppers (Niliparvata lugens Stal)
Rice seedlings (Oryzae sativa L.) in the two leaf stage (about 10 per polystyrene pot of size 6.5 x 6.5 cm) were either untreated or […] until dripping wet, with an aqueous preparation containing 0.1 % of active material. After drying the sprayed leaves, a transparent cylinder was placed over each pot and through an opening, about 30 brown rice-hoppers (Niliparvata lugens) in the 4-5 stage, anaesthetised with carbon dioxide, were introduced into each pot. After closing the opening with a fine mesh screen, the pots were kept for 2 days at 28° C and 16 hours/day of light in the glasshouse, the amount of dead hoppers was determined. The percentage mortality was then estimated and the activity calculated using Abbott's method in comparison with the untreated controls.

[5] = tested on: cotton army worm (Spodoptera littoralis); test: Use Example F: ovicidal activity against eggs of the cotton army worm; settings: aqueous preparation 0.1 %; one day old eggs dipped; four days; % inhibition of hatching of the eggs
Excerpt: Ovicidal activity against eggs of the cotton army worm (Spodoptera littoralis).
The compounds of the invention were made up as aqueous preparations at a concentration of 0.1 %. One day old eggs that had been laid on filter paper by fertilised female moths were dipped in the preparations until they were completely wet and then placed in closed petri dishes in the laboratory under extended daylight conditions for four days. The % inhibition of hatching of the eggs in comparison with untreated eggs indicates the level of activity.

[6] = tested on: corn rootworm (Diabrotica undecimpunctata); test: Use Example E: soil insecticide activity against eggs/larvae of the corn rootworm; settings: aqueous preparation 0.0025%, 5 ml into 50 cm^3 earth, 10 days at 25 C
Method: Soil insecticide activity against eggs/larvae of the corn rootworm (Diabrotica undecimpunctata)
5 ml of these preparations were pipetted into 300 ml clear plastic beakers, containing 50 cm^3 earth and ca. 50 Diabrotica eggs, as well as 2 presoaked maize seeds. The sealed pots were left for 10 days under extended daylight conditions at 25 C. The criterion for judging the activity after 10 days was the larvicidal activity and the root growth of the emerging maize plants in the treated pots in comparison with untreated controls.

[7] = tested on: Sheep blowfly (Lucilia sericata); test: whole plant or invertebrate; settings: 24 h, read-out: LCso
Method: Activity against Sheep blowfly (Lucilia sericata)
1 ml aliquots of acetone solutions or suspensions, containing test compound at various concentrations, were applied to cotton wool dental rolls (1 cm x 2 cm), contained in glass vials 2 cm diameter x 5 cm long. After drying, the treated materials were then impregnated with 1 ml of nutrient solution, infested with approximately 30 first instar larvae of sheep blow fly (Lucilia sericata), closed by a cotton wool plug and held at 25 C for 24 hours.

Boophilus microplus = test: whole plant or invertebrate; settings: Rhipicephalus microplus, 48 h, read-out: concentration causing 50% mortality
Method: Tickicidal activity against Boophilus microplus
9 cm diameter filter papers were impregnated with 1 ml aliquots of acetone solutions of test compound at various concentrations. The papers were allowed to dry and then folded into envelopes in which cattle tick larvae, (Boophilus microplus) were enclosed and held at 25°C and 80% R.H. for 48 hours. The percentage mortality of tick larvae was then recorded and compared with controls.

[8] = tested on: house fly (Musca domestica); test: Use Example J: activity against house fly; settings: adult houseflies on treated filter papers; 22 C for 24 hours
Method: Activity against house fly (Musca domestica)
Aliquots (0.7 ml) of acetone solutions or suspensions of test compounds at various concentrations were applied to filter papers (9 cm diameter) placed in the bottom of petri dishes (9 cm diameter) closed by glass lids. After evaporation of solvent, the treated surfaces, together with controls treated with acetone alone, were then infested with adult houseflies, (Musca domestica) and held at 22 C for 24 hours. The percentage mortality of the insects was then recorded.

Compound	mortality at 0.1 % [1] [%]	mortality at 0.1 % (Aphis fabae) [%]	mortality at 0.1 % [2] [%]	mortality at 0.1 % [3] [%]	mortality at 0.1 % [4] [%]	also measured
CC(C)(COCc1ccc(F)c(Oc2ccccc2)c1)C1=CCCC1 [Example 10, 2-(cyclopenten-1-yl)-1-(4-fluoro-3-phenoxybenzyloxy)-2-methylpropane]	80 to 100	≥ 80	80 to 100	–	–	–
C=C(Br)C(C)(C)COCc1cccc(Oc2ccccc2)c1 [Example 7, 2-bromo-3,3-dimethyl-4-(3-phenoxy-benzyloxy)-1-butene]	80 to 100	≥ 80	–	80 to 100	–	–
CC(C)(COCc1ccc(F)c(Oc2ccccc2)c1)C1=CCCCC1 [Example 2, 2-(Cyclohexen-1-yl)-2-methyl-1-(4-fluoro-3-phenoxybenzyloxy)propane]	–	≥ 80	–	80 to 100	≥ 80	–
CC(C)(COCc1c(F)c(F)c(F)c(F)c1F)C1=CCCC1 [Example 62, 2-(cyclopenten-1-yl)-2-methyl-1-(2,3,4,5,6-pentafluorobenzyloxy)propane]	–	–	80 to 100	–	–	–
C=C(C)C(C)(C)CCCc1cccc(Oc2ccccc2)c1 [Example 1, 6-(3-Phenoxyphenyl)-2,3,3,-trimethyl-1-hexene]	–	–	–	–	–	activity ([4]; brown rice-hopper, in vivo): ≥ 80%; activity [3]: 80-100%
C=C(C(C)C)C(C)(C)COCc1cccc(Oc2ccccc2)c1 [Example 25, 3-methylene-5-(3-phenoxy-benzyloxy)-2,4,4-trimethylpentane]	–	–	–	–	≥ 80	–
C=C(Br)C(C)(C)COCc1ccc(F)c(Oc2ccccc2)c1 [Example 59, 2-bromo-3,3-dimethyl-4-(4-fluoro-3-phenoxybenzyloxy)-1-butene]	80 to 100	≥ 80	80 to 100	80 to 100	≥ 80	–
CC(C)(COCc1ccc(F)c(Oc2ccccc2)c1)C1=CCOCC1 [Example 44, 1-(4-fluoro-3-phenoxybenzyloxy)-2-methyl-2-(4-oxacyclohexen-1-yl)propane]	–	–	–	–	≥ 80	–
C=C(C)C(C)(C)CCCc1ccc(F)c(Oc2ccccc2)c1 [Example 4, 6-(4-fluoro-3-phenoxyphenyl)-2,3,3-trimethyl-1-hexene]	80 to 100	≥ 80	80 to 100	80 to 100	≥ 80	activity [5]: 80 - 100%
C=C(I)C(C)(C)COCc1ccc(F)c(Oc2ccccc2)c1 [Example 60, 3,3-dimethyl-2-iodo-4-(4-fluoro-3-phenoxybenzyloxy)-1-butene]	80 to 100	≥ 80	–	–	≥ 80	–
C=C(C)C(C)(C)CCCc1cccc(Oc2ccccc2)n1 [Example 18, 6-(6-phenoxypyridin-2-yl)-2,3,3-trimethyl-1-hexene]	80 to 100	≥ 80	–	80 to 100	≥ 80	–
C=C(C)C(C)(C)COCc1cccc(Oc2ccccc2)n1 [Example 17, 4-(6-phenoxypyridin-2-ylmethoxy)-2,3,3-trimethyl-1-butene]	–	–	–	80 to 100	≥ 80	–
C=C(C)C1(COCc2ccc(F)c(Oc3ccccc3)c2)CC1 [Example 51, 2-(4-fluoro-3-phenoxybenzyloxy-methyl)-2-isopropenylcyclopropane]	–	≥ 80	–	80 to 100	≥ 80	–
C=C(c1ccccc1)C(C)(C)COCc1cccc(-c2ccccc2)c1C [Example 15, 3,3-dimethyl-4-(2-methyl-3-phenyl-benzyloxy)-2-phenyl-1-butene]	80 to 100	–	–	–	–	–
CC(C)(COCc1cccc(Oc2ccccc2)c1)C1=CCCCC1 [Example 8, 2-(cyclohexen-1-yl)-2-methyl-1-(3-phenoxybenzyloxy)propane]	–	–	80 to 100	80 to 100	–	–
C=C(C)C(C)(C)COCc1cccc(Oc2ccccc2)c1 [Example 16, 4-(3-phenoxybenzyloxy)-2,3,3-trimethyl-1-butene]	–	–	–	–	≥ 80	mortality at 0.0025 % ([6]; Diabrotica undecimpunctata, soil, 240 h, read-out: larvicidal activity): 90 to 100%; root growth of the emerging maize plants ([6]; in comparison with untreated controls): good root growth; LC50 [7]: < 300 µg/mL; LC50 (Boophilus microplus): ≤ 100 µg/mL; LDso [8]: less than 1000 mg/m^2
C=C(c1ccccc1)C(C)(C)COCc1c(F)c(F)c(F)c(F)c1F [Example 61, 3,3-dimethyl-4-(2,3,4,5,6-pentafluoro-benzyloxy)-2-phenyl-1-butene]	80 to 100	–	–	–	–	–
C=C(C(C)C)C(C)(C)COCc1ccc(F)c(Oc2ccccc2)c1 [Example 26]	–	–	–	–	–	activity [3]: 80-100%; activity (Aphis fabae; aphis fabae, in vivo): ≥ 80%
C=C(c1ccccc1)C(C)(C)COCc1ccc(F)c(Oc2ccccc2)c1 [Example 14, 3,3-dimethyl-4-(4-fluoro-3-phenoxy-benzyloxy)-2-phenyl-1-butene]	–	–	–	–	≥ 80	–
C=C(C)C(C)(C)COCc1ccc(F)c(Oc2ccccc2)c1 [Example 5, 4-(4-fluoro-3-phenoxybenzyloxy)-2,3,3-trimethyl-1-butene]	80 to 100	≥ 80	80 to 100	80 to 100	–	LC50 [7]: < 300 µg/mL; LC50 (Boophilus microplus): ≤ 100 µg/mL; LDso [8]: less than 1000 mg/m^2; activity [5]: 80 - 100%
C=C(I)C(C)(C)CCCc1cccc(Oc2ccccc2)c1 [Example 63, 3,3-dimethyl-2-iodo-6-(3-phenoxy-phenyl)-1-hexene]	–	–	80 to 100	–	≥ 80	–
C=C(C)C(C)(C)COCc1cccc(Oc2cccc(C(F)(F)F)c2)c1 [Example 24, 4-[3-(3-trifluoromethylphenoxy)-benzyloxy]-2,3,3-trimethyl-1-butene]	–	–	–	–	≥ 80	–
C=C(C)C(C)(C)COCc1cccc(Oc2ccc(Cl)cc2)c1 [Example 21, 4-[3-(4-chlorophenoxy)benzyloxy]-2,3,3-trimethyl-1-butene]	80 to 100	≥ 80	–	80 to 100	≥ 80	–

Reference: EP0378285A1, “Substituted alkenes, processes for their preparation and their use as pesticides” (priority 1989, dated 1990)
